From the METLIN SMRT retention time set (Domingo-Almenara et al. 2019)

Test: gradient 5% acetonitrile 3 min, to 50% in 2 min, to 85% in 15 min, held 3 min, 100 µL/min
Settings: column: Zorbax Extend-C18 2.1 x 50 mm; eluents: water / acetonitrile, 0.1% formic acid
Outline: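 Pure standards were run in mixtures of ~100 molecules by HPLC coupled to a quadrupole time-of-flight mass spectrometer. The column was a Zorbax Extend-C18 (2.1 × 50 mm, 1.8 μm) at 100 μL/min, with water and acetonitrile each containing 0.1% formic acid, in positive and negative ionization mode. Dead and dwell volumes were 40 μL and 900 μL. Retention time was taken from computationally picked adduct peaks, each manually inspected, with data collected over 3 months.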

Row | SMILES | RP-LC retention time [s]
1 | CCOc1ccccc1-c1nc(-c2cn(Cc3ccc(F)cc3)nn2)no1 | 1020
2 | Cc1nnc2c(=O)n(CC(=O)NCc3ccc(F)cc3F)c3cccnc3n12 | 680
3 | O=C(NCCN1CCCCC1)C1CCCN(c2ncc(-c3cccc(F)c3)cn2)C1 (stereo unspecified) | 696
4 | O=C(NC1CCCC1)C1CCCCN1S(=O)(=O)c1ccc(F)cc1 (stereo unspecified) | 941
5 | Cc1nc(-c2cccc(-c3noc(COc4ccc(Cl)cc4)n3)c2)cs1 | 1280
6 | CCn1cnc(S(=O)(=O)N2CCCC(C(=O)Nc3ccc(C)cc3Cl)C2)c1 (stereo unspecified) | 809
7 | COc1ccccc1N1CCN(C(=O)c2sc3cccc(F)c3c2OC)CC1 | 1050
8 | COc1ccc(C2c3[nH]c4ccccc4c3CCN2C(=O)Cc2cccs2)cc1 (stereo unspecified) | 1110
9 | COCc1nncn1C1CCN(S(=O)(=O)c2ccc(C(F)(F)F)cc2)CC1 | 764
10 | COc1ccc2[nH]cc(CCNC(=O)C(C)C3CCN(S(=O)(=O)c4c(C)noc4C)CC3)c2c1 (stereo unspecified) | 831
11 | N#CCSc1nnc2n(CCC(=O)NC3CCCCC3)c(=O)c3ccccc3n12 | 687
12 | COc1ccc(C2(C(=O)N3CCc4nn(C)c(=O)n4CC3)CC2)cc1 | 657
13 | Cc1ccsc1C(=O)NCCC1CCN(C(=O)Nc2cc(F)cc(F)c2)CC1 | 915
14 | CCN1CCN(c2cc(C)c3cc(NC(=O)/C=C/c4ccc(OCCC(C)C)cc4)ccc3n2)CC1 | 747
15 | Cc1ccc(-n2nc(N3CCCN(C(=O)Nc4cccc(C)c4)CC3)ccc2=O)cc1 | 802
16 | O=C(COc1ccc(Cl)cc1)Nc1nc(-c2ccc(S(=O)(=O)N3CCOCC3)cc2)cs1 | 1040
17 | O=C(C1CCN(c2cnn(Cc3ccccc3)c(=O)c2)CC1)N1CCCCC1 | 761
18 | Cc1nn(-c2ccc(-c3ccccc3)nn2)c(C)c1S(=O)(=O)NCc1ccc2c(c1)OCO2 | 978
19 | CC(C)Oc1ccc(CNC(=O)c2ccc3c(c2)nc2n3CCN(C(C)C)C2=O)cc1 | 754
20 | Cc1cccn2cc(-c3ccc(NS(=O)(=O)c4ccc(Cl)cc4)cc3)nc12 | 701
21 | O=C(Nc1ccc(F)c(Cl)c1)N1CCC(N2CCN(Cc3cccc(F)c3)C(=O)C2=O)CC1 | 798
22 | COC(=O)c1ccccc1NC(=O)N(Cc1cc(=O)[nH]c2ccccc12)C(C)C | 831

Row | SMILES | RP-LC retention time [s]
23 | O=c1n(Cc2ccccc2Cl)nc2c(S(=O)(=O)N3CCCC3)cccn12 | 853
24 | CCc1cccc(NC(=O)COc2cc(C)nc(N3CCN(c4ccccc4)CC3)n2)c1 | 922
25 | Cc1cccc(NC(=O)Cn2nc(N3CCCC3)c3ccccc3c2=O)c1 | 960
26 | COc1ccc(C(C)NC(=O)Cn2c(=O)nc(-c3ccccc3)c3ccccc32)cc1OC (stereo unspecified) | 697
27 | CCOc1cc(CN2CCCC2c2cc(C)no2)ccc1OCC(N)=O (stereo unspecified) | 580
28 | COc1ccc(CCC(=O)N2CCC3(CC2)C(=O)N(C)c2ccccc23)cc1 | 867
29 | CCN1C(=O)c2cc(C(=O)Nc3ccc(C)cc3)nn2CC1(C)C(=O)NC1CCCC1 (stereo unspecified) | 807
30 | CCOC(=O)c1cccc(N2C=C(C#N)S(=O)(=O)c3ccc(Cl)cc32)c1 | 996
31 | CCc1ccccc1N1C(=O)CN(S(=O)(=O)CC)CC1(C)C(=O)NC1CCCCCC1 (stereo unspecified) | 957
32 | CCCC(=O)Nc1ccc(CCc2nc3ccc(C(=O)NCCC(C)C)cc3[nH]2)cc1 | 674
33 | Cn1nc(-c2nc(-c3ccccc3)no2)c2c1CCN(C(=O)NC(C)(C)C)C2 | 780
34 | CC1(C)CC(=O)c2cn(-c3ccccc3)c(=O)c(C(=O)NC3CC3)c2C1 | 963
35 | CS(=O)(=O)NCC1CCC(C(=O)Nc2ccc3c(c2)Cc2ccccc2-3)CC1 (stereo unspecified) | 840
36 | COc1ccc(OC)c(NC(=O)Cn2c(C(F)(F)F)nc3cc4c(cc32)OCCO4)c1 | 881
37 | CCOC(=O)C(=O)Nc1c(C(=O)Nc2cccc(Cl)c2)oc2ccccc12 | 1090
38 | O=C(Cn1nc(C(=O)N2CCCCC2)c2ccccc21)N1CCN(c2cccc(Cl)c2)CC1 | 1010
39 | O=C(Nc1cnc(N2CCOCC2)nc1)c1cc(F)cc(F)c1 | 789
40 | CCc1sc(NC(=O)CCSc2ccccc2)nc1-c1ccccc1 | 1210
41 | Cc1cccc(C)c1NC(=O)Cn1ncc2c(c1=O)N(C1CC1)C(=O)CS2 | 714
42 | Cc1nnc(N2CCC(C(=O)N3CCCC3)CC2)c2nn(-c3ccccc3)c(C)c12 | 658
43 | O=C(NCCCc1ccccc1)C1CCCN(C(=O)Cc2cccc3ccccc23)C1 (stereo unspecified) | 944
44 | CC(CCc1ccccc1)NC(C)C(O)c1ccc(O)cc1 (stereo unspecified) | 712

Row | SMILES | RP-LC retention time [s]
45 | Cc1cccc(NC(=O)C2CCCN2S(=O)(=O)c2cc3c(cc2C)NC(=O)C(C)O3)c1 (stereo unspecified) | 813
46 | CN(C)CCCNc1oc(-c2ccccc2F)nc1S(=O)(=O)c1ccccc1 | 666
47 | O=C1CCCc2cc(S(=O)(=O)NCCCN3CCN(c4ccccc4F)CC3)ccc2N1 | 621
48 | COc1ccc(S(=O)(=O)NCc2cccnc2-c2cccc(C)c2)cc1Cl | 756
49 | COc1ccc(-c2noc(C3(NC(=O)c4cccc(Cl)c4)CCCCC3)n2)cc1 | 1250
50 | O=C(C1=CN(c2cccc(Cl)c2)c2ccccc2S1(=O)=O)N1CCCC1 | 814
51 | N#Cc1cccc(-c2nc(-c3cccc(-c4ccn[nH]4)c3)no2)c1 | 920
52 | Cc1cc(OC(=O)c2cc3ccccc3o2)c([N+](=O)[O-])c(=O)[nH]1 | 1160
53 | COc1cccc(CNS(=O)(=O)c2ccc(-c3c(C)noc3C)cc2)c1 | 904
54 | COC(=O)c1c(C)[nH]c(C(=O)N2CCC(CC(=O)NCc3ccc(SC)cc3)CC2)c1C | 774
55 | Cc1cc(C)cc(NC(=O)Cn2nc(N3CCOCC3)c3ccccc3c2=O)c1 | 840
56 | CC1=C(c2cccc(Cl)c2)S(=O)(=O)N=C1N1CCCN(C(=O)c2ccncc2)CC1 | 677
57 | Cc1ccc(NC(=O)N2CCCC(C)(C(=O)NCc3ccc(F)cc3)C2)cc1F (stereo unspecified) | 959
58 | Cc1cnc(NC(=O)c2ccc(N3CCCC3)nn2)s1 | 636
59 | CC(=O)N1CCCSc2ccc(S(=O)(=O)N3CCC(CN4CCc5ccccc5C4)CC3)cc21 | 671
60 | Cc1[nH]c(/C=C2\C(=O)Nc3ccc(S(=O)(=O)Cc4c(Cl)cccc4Cl)cc32)c(C)c1C(=O)N1CCC[C@@H]1CN1CCCC1 | 787
61 | COc1cccc(N2CCN(C(=O)c3cc(C4CC4)[nH]n3)CC2)c1 | 813
62 | COc1ccc(NC(=O)N2CCC3(CC2)NC(=O)c2ccccc2N3C)c(OC)c1 | 649
63 | CC(C)CCNC(=O)c1cc2n(n1)CC(C)(C(=O)NCc1ccccc1)N(C)C2=O (stereo unspecified) | 758
64 | Nc1nc2ccc(Cl)cc2n2c(-c3ccccc3)nnc12 | 867
65 | Cc1ccc2nc(-c3ccc(O)cc3)c(Nc3ccc(Cl)cc3)n2c1 | 671
66 | O=C(c1ccccc1Cl)N1CCCC(c2nnc(-c3cccs3)o2)C1 (stereo unspecified) | 775

Row | SMILES | RP-LC retention time [s]
67 | CC(C)c1ccc2nc3ccc(C(=O)NCCN(C)C)cn3c(=O)c2c1 | 631
68 | O=[N+]([O-])c1ccc(-c2nc(NC3CCCCC3)c3ccccc3n2)cc1 | 921
69 | O=C(C1=CCN(Cc2cccc(F)c2)CC1)N1CCN(c2ccccc2)CC1 | 642
70 | CC1=NS(=O)(=O)N(C)C=C1C(=O)OCCc1ccccc1 | 967
71 | CCOC(=O)C1CCN(c2nnc(-c3nnc(CC)o3)c3ccccc23)CC1 | 977
72 | CCc1ccc(S(=O)(=O)N2CCC(C(=O)NCc3csc(-c4cccs4)n3)CC2)cc1 | 987
73 | Cc1ccccc1CNC(=O)C1=C2CCCN2c2ccccc2S1(=O)=O | 873
74 | COc1cc(-c2nnc(COc3ccc(Cl)cc3Cl)o2)cc(OC)c1OC | 994
75 | Cc1ccc(NC(=O)Cn2c(=O)n(-c3ccc(F)cc3)c(=O)c3c2cc(C)n3C)cc1Cl | 946
76 | Cn1nnnc1C1CCCN(C(=O)Nc2ccc3c(c2)OCCO3)C1 (stereo unspecified) | 661
77 | CN(C)S(=O)(=O)c1ccc2c(c1)N(CC(=O)Nc1ccccn1)C(=O)C1CCCCN21 (stereo unspecified) | 795
78 | Cc1cccc(C)c1Nc1c(-c2ccccc2F)nc2ccc(Br)cn12 | 893
79 | Cc1cc(Cl)ccc1S(=O)(=O)N1CCC(OCc2noc(C3CCCO3)n2)CC1 (stereo unspecified) | 1030
80 | CN1C(=O)c2cc(S(=O)(=O)NC3CCCCC3)ccc2Oc2cccnc21 | 929
81 | O=C(c1nnc(-c2ccc(S(=O)(=O)N3CCCC3)cc2)o1)N1CCOCC1 | 739
82 | Cc1ccc(S(=O)(=O)NC2CCN(c3ccccc3)C2=O)cc1 (stereo unspecified) | 876
83 | COc1ccc(C2CC(=O)N(c3ccc(Cl)cc3)C(=O)C2)cc1OC | 859
84 | Cc1ccc(Cl)cc1N1CCN(c2cc(C(=O)O)c3cc(NC(=O)C(C)(C)C)ccc3n2)CC1 | 830
85 | O=C1CN(C(=O)COc2cccc3ccccc23)c2ccccc2N1 | 861
86 | Cc1ccc(NC(=O)Cn2cnc3nc(N4CCCC(C(=O)NC(C)C)C4)sc3c2=O)cc1 (stereo unspecified) | 711
